Values of other authors, collected in patent publication US20120064155A1, “ORAL PHARMACEUTICAL COMPOSITION FOR USE IN RESPIRATORY DISEASES” (LABORATORIOS SENOSIAIN S.A. DE C.V., priority 2009, published 2012).
Converted amounts (≈) assume the structure as drawn.

Tests used:
[1] = after oral administration; approximately
[2] = tested on: plasma proteins

| Compound | start of antihistamine effect [1] [min] | water solubility [mg/mL] | bound to plasma proteins [2] [%] |
| --- | --- | --- | --- |
| CCOC(=O)N1CCC(=C2c3ccc(Cl)cc3CCc3cccnc32)CC1 [Loratadine] | ≤ 30 |  |  |
| CNC[C@H](O)c1cccc(O)c1 [Phenylephrine] |  | 100 (≈ 598 mM) | 95 |
